Experimental data reported in patent US20230075007A1 (IMPACT NATURALS, INC., priority 2021, published 2023).

How the values were obtained:
CB2 = CB2 (Homo sapiens, UniProt P34972); details: WHO assessment; cited from earlier work
[1] = cited from earlier work
[2] = Dispersion in simulated gastric and intestinal fluids; type: physicochemical
Procedure: Dispersion of the formulations in simulated gastric and intestinal fluids is evaluated over a 12 hour period.

Sequence of CB2 (P34972 whole entry, species assumed): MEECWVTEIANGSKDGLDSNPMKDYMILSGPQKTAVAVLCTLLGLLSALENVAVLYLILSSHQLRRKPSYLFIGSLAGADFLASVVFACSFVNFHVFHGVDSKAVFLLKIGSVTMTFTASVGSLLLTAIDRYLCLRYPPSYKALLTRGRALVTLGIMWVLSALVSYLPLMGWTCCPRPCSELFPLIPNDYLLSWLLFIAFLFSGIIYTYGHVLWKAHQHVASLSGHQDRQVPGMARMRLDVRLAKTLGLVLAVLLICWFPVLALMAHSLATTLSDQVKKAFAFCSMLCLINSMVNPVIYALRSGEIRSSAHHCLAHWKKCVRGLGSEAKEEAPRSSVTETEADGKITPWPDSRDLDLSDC

In the case of `C=C(C)[C@@H]1CCC(C)=C[C@H]1c1c(O)cc(CCCCC)cc1O` [Cannabidiol], the “affinity to CB2” value (CB2) is listed as “low affinity”, the aqueous solubility [1] is listed as “approximately 0.013 milligrams per milliliter” and the dispersion ([2]; FaSSGF, pH 1.2, 12 hour period) is listed as “no dispersion”. For the same molecule, the “dispersion pattern in the biorelevant media” value ([2]; FaSSIF, FeSSIF and FaSSGF overall) was “poor dispersion”, the dispersion ([2]; FaSSIF, pH 6.5, 12 hour period) was “about 20%” and the dispersion ([2]; FeSSIF, pH 5.5, 12 hour period) was “about 20%”.
